Results reported in US12599672B2, “KRAS proteolysis targeting chimeras” (PAQ Therapeutics Inc., priority 2023, dated 2026).

Tests used:
Format in all cases: cell-based
[1] = target: T1, KRAS G12D (Homo sapiens, UniProt P01116, G12D); experiment: KRAS G12D HiBit assay; conditions: AsPc-1-KRAS (G12D)-HiBit-KI cell, compound treatment for 24 hours, absolute DC50
T1 construct: AsPc-1-KRAS (G12D)-HiBit-KI cell (Pharmaron); host or cells: AsPc-1-KRAS (G12D)-HiBit-KI cells (HiBiT knock-in at the endogenous KRAS locus)
In short: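 HiBiT luminescence, detected by adding lytic buffer, substrate and LgBiT protein, served as the KRAS G12D read-out. Compounds, serially diluted 3-fold over 10 points from 0.3 mM DMSO stock, were on cells for 24 h; percent inhibition normalized to cells given 0.1% DMSO only.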

[2] = target: T2, KRAS G12V (Homo sapiens, UniProt P01116, G12V); experiment: KRAS G12V HiBit assay; conditions: SW620-KRAS (G12V)-HiBit-KI cells, compound treatment for 24 hours, class symbols
T2 construct: SW620-KRAS (G12V)-HiBit-KI cell (Pharmaron); host or cells: SW620-KRAS (G12V)-HiBit-KI cells (HiBiT knock-in at the endogenous KRAS locus)
In short: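 Luminescence from lytic Nano-Glo HiBiT detection with LgBiT read KRAS G12V levels after 24 h compound exposure. Dilutions were 10-point, 3-fold, from a 0.3 mM DMSO stock. Degradation activity was normalised to cells given 0.1% DMSO alone.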

[3] = target: T3, KRAS (Homo sapiens, UniProt P01116); experiment: KRASamp MSD assay; conditions: KE39 (KRAS amplified) cells, treated with test compounds for 24 hr, MSD readout of KRAS degradation
T3 construct: endogenous in cells; host or cells: KE39 (KRAS amplified) cells
In short: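 Degradation DC50 derived by curve fitting, with KRAS levels quantified by MSD electrochemiluminescence (capture/detection antibodies, recombinant WT KRAS standard). Lysates prepared from KE39 cells (KRAS amplified) exposed to test compounds for 24 hr.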

[4] = numeric bounds given in place of class symbols

T2 sequence (P01116 1-188 isoform P01116-2 G12V): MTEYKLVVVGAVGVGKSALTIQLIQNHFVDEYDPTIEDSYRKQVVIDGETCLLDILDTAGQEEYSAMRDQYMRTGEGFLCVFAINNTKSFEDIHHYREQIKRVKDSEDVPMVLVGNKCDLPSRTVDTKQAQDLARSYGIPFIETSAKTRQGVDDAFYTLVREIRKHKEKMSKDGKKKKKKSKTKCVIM
T3 sequence (P01116 1-188 isoform P01116-2): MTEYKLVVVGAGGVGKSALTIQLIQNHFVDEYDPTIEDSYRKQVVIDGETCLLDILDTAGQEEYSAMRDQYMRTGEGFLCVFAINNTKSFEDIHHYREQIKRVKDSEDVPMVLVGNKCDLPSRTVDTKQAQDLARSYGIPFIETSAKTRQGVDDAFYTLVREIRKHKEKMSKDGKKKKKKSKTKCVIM
T1 sequence (P01116 1-188 isoform P01116-2 G12D): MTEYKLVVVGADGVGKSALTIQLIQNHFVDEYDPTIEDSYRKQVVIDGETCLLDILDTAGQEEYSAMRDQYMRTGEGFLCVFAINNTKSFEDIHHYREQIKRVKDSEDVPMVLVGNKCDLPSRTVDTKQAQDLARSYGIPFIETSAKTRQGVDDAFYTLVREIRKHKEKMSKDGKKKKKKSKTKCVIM

Row | DC50 ([1]; class symbols) [nM] | DC50 [2] [nM] | DC50 [3] [nM] | DC50 [1, 4] [nM] | SMILES
1 | < 100 | < 10 | < 1 | – | Cn1c(=O)n(C2CCC(=O)NC2=O)c2ccc(N3CCC(CN4CCN(C(=O)OC[C@@H]5CC[C@]6(COc7nc(N8CCC[C@@](C)(O)C8)c8cnc(-c9cc(O)cc%10ccc(F)cc9%10)c(F)c8n7)CCCN56)CC4)CC3)cc21 (stereo partly drawn) [Compound 445, ((3S,7aS)-7a-(((8-fluoro-7-(7-fluoro-3-hydroxynaphthalen-1-yl)-4-((R)-3-hydroxy-3-methylpiperidin-1-yl)pyrido[4,3-d]pyrimidin-2-yl)oxy)methyl)hexahydro-1H-pyrrolizin-3-yl)methyl 4-((1-(1-(2,6-dioxopiperidin-3-yl)-3-methyl-2-oxo-2,3-dihydro-1H-benzo[d]imidazol-5-yl)piperidin-4-yl)methyl)piperazine-1-carboxylate]
2 | – | < 10 | 1 to 10 | > 100 | C#Cc1c(F)ccc2cc(O)cc(-c3ncc4c(N5CCCC(F)(F)C5)nc(OC[C@]56CCCN5[C@H](COC(=O)N5CCC(CN7CCC(c8ccc9c(c8)n(C)c(=O)n9C8CCC(=O)NC8=O)CC7)CC5)CC6)nc4c3F)c12 (stereo partly drawn) [Compound 431, ((3S,7aR)-7a-(((4-(3,3-difluoropiperidin-1-yl)-7-(8-ethynyl-7-fluoro-3-hydroxynaphthalen-1-yl)-8-fluoropyrido[4,3-d]pyrimidin-2-yl)oxy)methyl)hexahydro-1H-pyrrolizin-3-yl)methyl 4-((4-(1-(2,6-dioxopiperidin-3-yl)-3-methyl-2-oxo-2,3-dihydro-1H-benzo[d]imidazol-5-yl)piperidin-1-yl)methyl)piperidine-1-carboxylate]
3 | > 300 | < 10 | 1 to 10 | – | C#Cc1c(F)ccc2cc(O)cc(-c3ccc4c(N5CCC[C@@](C)(O)C5)nc(OCC5(CN6CCN(CC7CCN(c8ccc9c(c8)n(C)c(=O)n9C8CCC(=O)NC8=O)CC7)CC6)CC5)nc4c3F)c12 (stereo partly drawn) [Compound 11]
4 | < 100 | < 10 | < 1 | – | CCc1c(F)ccc2cc(O)cc(-c3ncc4c(N5CCCC(F)(F)C5)nc(OC[C@@]56CCCN5[C@H](COC(=O)N5CCC7(CC5)CC(N5CCC(c8ccc9c(c8)n(C)c(=O)n9C8CCC(=O)NC8=O)CC5)C7)CC6)nc4c3F)c12 (stereo partly drawn) [Compound 470, ((3S,7aS)-7a-(((4-(3,3-difluoropiperidin-1-yl)-7-(8-ethyl-7-fluoro-3-hydroxynaphthalen-1-yl)-8-fluoropyrido[4,3-d]pyrimidin-2-yl)oxy)methyl)hexahydro-1H-pyrrolizin-3-yl)methyl 2-(4-(1-(2,6-dioxopiperidin-3-yl)-3-methyl-2-oxo-2,3-dihydro-1H-benzo[d]imidazol-5-yl)piperidin-1-yl)-7-azaspiro[3.5]nonane-7-carboxylate]
5 | < 100 | < 10 | < 1 | – | CCc1c(F)ccc2cc(O)cc(-c3ncc4c(N5CCC[C@@](C)(O)C5)nc(OC[C@@]56CCCN5[C@H](COC(=O)N5CCC(CN7CCC(c8ccc9c(c8)n(C)c(=O)n9C8CCC(=O)NC8=O)C(F)(F)C7)CC5)CC6)nc4c3F)c12 (stereo partly drawn) [Compound 398, ((3S,7aS)-7a-(((7-(8-ethyl-7-fluoro-3-hydroxynaphthalen-1-yl)-8-fluoro-4-((R)-3-hydroxy-3-methylpiperidin-1-yl)pyrido[4,3-d]pyrimidin-2-yl)oxy)methyl)hexahydro-1H-pyrrolizin-3-yl)methyl 4-((4-(1-(2,6-dioxopiperidin-3-yl)-3-methyl-2-oxo-2,3-dihydro-1H-benzo[d]imidazol-5-yl)-3,3-difluoropiperidin-1-yl)methyl)piperidine-1-carboxylate]
6 | < 100 | < 10 | < 1 | – | C#Cc1c(F)ccc2cc(O)cc(-c3ncc4c(N5CCC[C@@](C)(O)C5)nc(OC[C@@]56CCCN5[C@H](COC(=O)N5CC7(CCC(CN8CCC(c9ccc%10c(c9)n(C)c(=O)n%10C9CCC(=O)NC9=O)CC8)CC7)C5)CC6)nc4c3F)c12 (stereo partly drawn) [Compound 421, ((3S,7aS)-7a-(((7-(8-ethynyl-7-fluoro-3-hydroxynaphthalen-1-yl)-8-fluoro-4-((R)-3-hydroxy-3-methylpiperidin-1-yl)pyrido[4,3-d]pyrimidin-2-yl)oxy)methyl)hexahydro-1H-pyrrolizin-3-yl)methyl 7-((4-(1-(2,6-dioxopiperidin-3-yl)-3-methyl-2-oxo-2,3-dihydro-1H-benzo[d]imidazol-5-yl)piperidin-1-yl)methyl)-2-azaspiro[3.5]nonane-2-carboxylate]
7 | < 100 | < 10 | 1 to 10 | – | CCc1c(F)ccc2cc(O)cc(-c3ncc4c(N5CCC[C@@](C)(O)C5)nc(OC[C@]56CCCN5[C@H](COC(=O)N5CCC(CCCCOc7ccc8c(c7)n(C)c(=O)n8C7CCC(=O)NC7=O)CC5)CC6)nc4c3F)c12 (stereo partly drawn) [Compound 303, ((3S,7aR)-7a-(((7-(8-ethyl-7-fluoro-3-hydroxynaphthalen-1-yl)-8-fluoro-4-((R)-3-hydroxy-3-methylpiperidin-1-yl)pyrido[4,3-d]pyrimidin-2-yl)oxy)methyl)hexahydro-1H-pyrrolizin-3-yl)methyl 4-(4-((1-(2,6-dioxopiperidin-3-yl)-3-methyl-2-oxo-2,3-dihydro-1H-benzo[d]imidazol-5-yl)oxy)butyl)piperidine-1-carboxylate]
8 | < 100 | < 10 | < 1 | – | CCc1c(F)ccc2cc(O)cc(-c3ncc4c(N5CCC[C@@H](CO)C5)nc(OC[C@@]56CCCN5[C@H](COC(=O)N5CCC(CN7CCC(c8ccc9c(c8)n(C)c(=O)n9C8CCC(=O)NC8=O)CC7)CC5)CC6)nc4c3F)c12 (stereo partly drawn) [Compound 340, ((3S,7aS)-7a-(((7-(8-ethyl-7-fluoro-3-hydroxynaphthalen-1-yl)-8-fluoro-4-((R)-3-(hydroxymethyl)piperidin-1-yl)pyrido[4,3-d]pyrimidin-2-yl)oxy)methyl)hexahydro-1H-pyrrolizin-3-yl)methyl 4-((4-(1-(2,6-dioxopiperidin-3-yl)-3-methyl-2-oxo-2,3-dihydro-1H-benzo[d]imidazol-5-yl)piperidin-1-yl)methyl)piperidine-1-carboxylate]
9 | < 100 | 10 to 100 | 1 to 10 | – | CCc1c(F)ccc2cc(O)cc(-c3ncc4c(N5CCC[C@@](C)(O)C5)nc(OC[C@@]56CCCN5[C@H](COC(=O)NC5CCN(CC7CCN(c8ccc9c(c8)n(C)c(=O)n9C8CCC(=O)NC8=O)CC7)CC5)CC6)nc4c3F)c12 (stereo partly drawn) [Compound 428, ((3S,7aS)-7a-(((7-(8-ethyl-7-fluoro-3-hydroxynaphthalen-1-yl)-8-fluoro-4-((R)-3-hydroxy-3-methylpiperidin-1-yl)pyrido[4,3-d]pyrimidin-2-yl)oxy)methyl)hexahydro-1H-pyrrolizin-3-yl)methyl (1-((1-(1-(2,6-dioxopiperidin-3-yl)-3-methyl-2-oxo-2,3-dihydro-1H-benzo[d]imidazol-5-yl)piperidin-4-yl)methyl)piperidin-4-yl)carbamate]
10 | – | > 100 | ≥ 10 | > 100 | C#Cc1c(F)ccc2cc(O)cc(-c3ncc4c(N5CCC[C@@](C)(O)C5)nc(OC[C@@]56CCCN5[C@H](COC(=O)N5CCCC7(CN(CC8CCN(c9ccc%10c(c9)n(C)c(=O)n%10C9CCC(=O)NC9=O)CC8)C7)C5)CC6)nc4c3F)c12 (stereo partly drawn) [Compound 329, ((3S,7aS)-7a-(((7-(8-ethynyl-7-fluoro-3-hydroxynaphthalen-1-yl)-8-fluoro-4-((R)-3-hydroxy-3-methylpiperidin-1-yl)pyrido[4,3-d]pyrimidin-2-yl)oxy)methyl)hexahydro-1H-pyrrolizin-3-yl)methyl 2-((1-(1-(2,6-dioxopiperidin-3-yl)-3-methyl-2-oxo-2,3-dihydro-1H-benzo[d]imidazol-5-yl)piperidin-4-yl)methyl)-2,6-diazaspiro[3.5]nonane-6-carboxylate]
11 | < 100 | < 10 | < 1 | – | C#Cc1c(F)ccc2cc(O)cc(-c3ncc4c(N5CCC[C@@](C)(O)C5)nc(OCC5(CN6CCC7(CC6)CC(N6CCC(c8cccc9c8n(C)c(=O)n9C8CCC(=O)NC8=O)CC6)C7)CC5)nc4c3F)c12 (stereo partly drawn) [Compound 64]
12 | < 100 | < 10 | 1 to 10 | – | C#Cc1c(F)ccc2cc(O)cc(-c3ncc4c(N5CCC[C@@](C)(O)C5)nc(OC[C@@]56CCCN5[C@H](COC(=O)N5CCC(OCCC#Cc7ccc8c(c7)n(C)c(=O)n8C7CCC(=O)NC7=O)CC5)CC6)nc4c3F)c12 (stereo partly drawn) [Compound 369, ((3S,7aS)-7a-(((7-(8-ethynyl-7-fluoro-3-hydroxynaphthalen-1-yl)-8-fluoro-4-((R)-3-hydroxy-3-methylpiperidin-1-yl)pyrido[4,3-d]pyrimidin-2-yl)oxy)methyl)hexahydro-1H-pyrrolizin-3-yl)methyl 4-((4-(1-(2,6-dioxopiperidin-3-yl)-3-methyl-2-oxo-2,3-dihydro-1H-benzo[d]imidazol-5-yl)but-3-yn-1-yl)oxy)piperidine-1-carboxylate]
